From ChEMBL document CHEMBL4334476 (J Med Chem, 2019)

Assays:
[1] = Inhibition of human recombinant arginase 2 H331 to I354 deletion mutant expressed in Escherichia coli BL21 (DE3) assessed as reduction in urea production using L-arginine as substrate in presence of MnSO4 incubated for 60 mins by colorimetric assay
Arginase-1 = target: T1, Arginase-1 (Homo sapiens, UniProt P05089); test: Inhibition of human recombinant arginase 1 expressed in Escherichia coli BL21 (DE3) assessed as reduction in urea production using L-arginine as substrate in presence of MnSO4 incubated for 60 mins by o-phthaldialdehyde/N-(1-naphthyl)ethylene-diamine dihydrochloride reagent based colorimetric assay
T1 sequence (P05089 whole entry): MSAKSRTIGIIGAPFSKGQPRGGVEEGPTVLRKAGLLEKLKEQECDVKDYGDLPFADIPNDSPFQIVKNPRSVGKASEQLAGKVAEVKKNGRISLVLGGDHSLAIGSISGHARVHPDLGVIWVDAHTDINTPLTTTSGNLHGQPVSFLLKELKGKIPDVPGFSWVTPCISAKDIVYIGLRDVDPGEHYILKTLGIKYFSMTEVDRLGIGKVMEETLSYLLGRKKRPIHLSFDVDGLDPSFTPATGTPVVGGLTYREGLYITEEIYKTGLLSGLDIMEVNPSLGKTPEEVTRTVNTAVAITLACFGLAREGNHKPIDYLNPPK

Homo sapiens = species: Homo sapiens; test: Selectivity ratio of IC50 for human recombinant arginase 2 H331 to I354 deletion mutant expressed in Escherichia coli BL21 (DE3) to IC50 for human recombinant arginase 1 expressed in Escherichia coli BL21 (DE3)
[2] = target: T2, Arginase-1 (Homo sapiens) (UniProt P05089); test: Potency index, ratio of ABH IC50 to test compound IC50 for human recombinant arginase 1 expressed in Escherichia coli BL21 (DE3)
T2 sequence (whole entry): T1 sequence (P05089 whole entry)

IC50 ([1]; read-out: IC50)	IC50 (Arginase-1; read-out: IC50)	Ratio IC50 (Homo sapiens)	IC50 [1]	IC50 (Arginase-1)	Ratio IC50 [2]	Structure (SMILES)
850 nM	360 nM	3 to 5				N[C@@]1(C(=O)O)CN(Cc2cncs2)C[C@@H]1CCCB(O)O
47 nM	11 nM	3 to 5				N[C@@]1(C(=O)O)CN(C[C@@H]2CCCN2)C[C@@H]1CCCB(O)O
95 nM	30 nM	3 to 5				N[C@@]1(C(=O)O)CN(C[C@@H]2CCCCN2)C[C@@H]1CCCB(O)O
1610 nM	390 nM	3 to 5				CC(C)CN1C[C@H](CCCB(O)O)[C@](N)(C(=O)O)C1
1540 nM	300 nM	3 to 5				N[C@@]1(C(=O)O)CN(Cc2ccccc2)C[C@@H]1CCCB(O)O
330 nM	100 nM	3 to 5				Cn1ccnc1CN1C[C@H](CCCB(O)O)[C@](N)(C(=O)O)C1
1860 nM	600 nM	3 to 5				N[C@@]1(C(=O)O)CN(Cc2ccncc2)C[C@@H]1CCCB(O)O
		3 to 5				NC1(C(=O)O)CCCC1CCCB(O)O (racemic; 8) [listing 1 of 2 here]
14 nM	2.6 nM	3 to 5				N[C@@]1(C(=O)O)CN(C[C@H]2CCCCN2)C[C@@H]1CCCB(O)O
1260 nM						N=C(NO)NCC[C@H](N)C(=O)O [NOR-NOHA]
			Not Active	Not Active		N[C@]1(C(=O)O)CCC[C@H]1CCCB(O)O
630 nM	210 nM	3 to 5				N[C@@]1(C(=O)O)CCC[C@@H]1CCCB(O)O
8.1 nM	1.3 nM	3 to 5			1190	N[C@@H](Cc1ccccc1)CN1C[C@H](CCCB(O)O)[C@](N)(C(=O)O)C1
37 nM	10 nM	3 to 5				N[C@@]1(C(=O)O)CN(C[C@H]2CCCN2)C[C@@H]1CCCB(O)O
1270 nM	380 nM	3 to 5				N[C@@]1(C(=O)O)CN(Cc2ccccn2)C[C@@H]1CCCB(O)O
65 nM	19 nM	3 to 5				N[C@@]1(C(=O)O)CN(C[C@H]2COCCN2)C[C@@H]1CCCB(O)O
9.5 nM	2.5 nM	3 to 5				N[C@H](CN1C[C@H](CCCB(O)O)[C@](N)(C(=O)O)C1)c1ccccc1
2550 nM	1550 nM	3 to 5				N[C@@H](CCCCB(O)O)C(=O)O
2230 nM	340 nM	3 to 5				Cc1nn(C)c(C)c1CN1C[C@H](CCCB(O)O)[C@](N)(C(=O)O)C1
16 nM	7.7 nM	2 to 5				C[C@H](N)CN1C[C@H](CCCB(O)O)[C@](N)(C(=O)O)C1
2160 nM	670 nM	3 to 5				N[C@@]1(C(=O)O)CN(Cc2cccc(F)n2)C[C@@H]1CCCB(O)O
440 nM	110 nM	3 to 5				N[C@@]1(C(=O)O)CNC[C@@H]1CCCB(O)O
27 nM	10 nM	3 to 5				N[C@H](Cc1ccccc1)CN1C[C@H](CCCB(O)O)[C@](N)(C(=O)O)C1
2180 nM	400 nM	3 to 5				Cc1[nH]ncc1CN1C[C@H](CCCB(O)O)[C@](N)(C(=O)O)C1
27 nM	10 nM	3 to 5				N[C@@]1(C(=O)O)CN(C[C@@H]2COCCN2)C[C@@H]1CCCB(O)O
1370 nM	470 nM	3 to 5				N[C@@]1(C(=O)O)CN(Cc2cccnc2)C[C@@H]1CCCB(O)O
79200 nM	48000 nM					NC1(C(=O)O)CCCC1CCCB(O)O (racemic; 9)
1280 nM	380 nM					NC1(C(=O)O)CCCC1CCCB(O)O (racemic; 8) [listing 2 of 2 here]
37 nM	16 nM	3 to 5				C[C@@H](N)CN1C[C@H](CCCB(O)O)[C@](N)(C(=O)O)C1
62 nM	18 nM	3 to 5				N[C@@H](CN1C[C@H](CCCB(O)O)[C@](N)(C(=O)O)C1)c1ccccc1
